The values that follow come from patent US9907803B2, “Methods for treating attention deficit hyperactivity disorder” (REVIVA PHARMACEUTICALS, INC., priority 2014, dated 2018).

The assay has as its target 5-HT2A (Homo sapiens, UniProt P28223). The assay is described as follows: Radioligand binding assay, serotonin 5-HT2A. Particulars: 5-HT2A radioligand binding. The procedure:
Two arylpiperazine derivatives of Formula (I) were tested in the in vitro pharmacological assays to evaluate their activities for dopamine D2 and D4, and serotonin 5-HT1A, 5-HT2A, 5-HT2B, 5-HT6 and 5-HT7 receptors.
Methods employed to evaluate the test compounds A and B in radioligand binding assays were adopted from the scientific literature references as shown in Table 1 to maximize reliability and reproducibility. Reference standards were run as an integral part of each assay to ensure the validity of the results obtained.
Literature References in Table 1: • 1. Gundlach, A. L., et al., Life Sciences 1984, 35:1981-1986. • 2. Hoyer, D., et al, Eur J Pharmacol, 1985, 118:13-23 • 3. Hall, D. a., et al, Brit J Pharmacol, 1997, 121:731-736. • 4. Carpenter, J. W., et al, (2002) Configuring radioligand receptor binding assays for HTS using scintillation proximity assay technology. Methods in Molecular Biology 190 High Throughput Screening: Methods and Protocols • [www.ncgc.nihgov/guidance/manualtoc.html] • 5. Van Tol, et al, nature 1992, 358:149-152. • 6. Bonhaus, D. W., et al, Brit J Pharmacol, 1995, 115:622-628. • 7. Monsma, F. J., et al, Mol Pharmacol, 1993, 43:320-327. • 8. Shen, Y. et al, J. Biol Chem, 1993, 268:18200-18204. • 9. Adham, N., et al, J Pharmacol Exp Ther, 1998, 287:508-514.

SMILES strings stand for the structures. Structures can show the parent of a compound that is named as a salt.

5-HT2A, sequence (P28223 whole entry): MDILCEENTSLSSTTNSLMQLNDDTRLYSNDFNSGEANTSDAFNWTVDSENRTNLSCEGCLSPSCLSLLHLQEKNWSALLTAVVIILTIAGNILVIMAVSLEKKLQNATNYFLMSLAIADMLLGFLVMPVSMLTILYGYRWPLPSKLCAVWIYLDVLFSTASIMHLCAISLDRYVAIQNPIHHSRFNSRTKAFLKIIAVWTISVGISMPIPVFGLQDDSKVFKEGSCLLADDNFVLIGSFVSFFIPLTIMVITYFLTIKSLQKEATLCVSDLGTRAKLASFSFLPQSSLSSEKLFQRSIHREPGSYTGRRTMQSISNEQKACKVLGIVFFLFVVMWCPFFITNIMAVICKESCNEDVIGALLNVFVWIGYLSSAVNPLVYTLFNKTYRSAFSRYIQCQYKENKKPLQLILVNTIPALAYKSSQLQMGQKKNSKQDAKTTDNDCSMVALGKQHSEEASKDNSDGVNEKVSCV

`O=C1COc2ccc(OCCCCN3CCN(c4cccc(Cl)c4Cl)CC3)cc2N1` [Compound B, 6-(4-(4-(2,3-dichlorophenyl)piperazin-1-yl)butoxy)-2H-benzo[b][1,4]oxazin-3(4H)-one hydrochloride] yielded a Ki of 2.5 nM.

Usually Ki stands for a measure of affinity in units of concentration, obtained from inhibition or displacement. Read a low Ki as tighter binding.
